The SangsterLogP compilation

Tests used:
[1] = method code SF-AS, from DOI: 10.1016/s0021-9673(01)95502-5

| logD ([1]; pH 3.5) | SMILES | further results |
| --- | --- | --- |
| 3.37 | CCC(O)(C(=O)O)c1ccc(-c2ccccc2)cc1 (stereo not drawn) |  |
| 2.7 | CC(C)c1ccc(C(=O)CCC(=O)O)cc1 |  |
| 0.81 | COc1ccc(C(C)(O)C(=O)O)cc1 (stereo not drawn) |  |
| 2.85 | CC(C)c1ccc(CC(=O)O)cc1 |  |
| 2.18 | CC(C)Oc1ccc(C(=O)CCC(=O)O)cc1 |  |
| 3.2 | CC(C)Cc1ccc(C(=O)CCC(=O)O)cc1 |  |
| 3.39 | CC(C)Cc1ccc(C(=O)CCCC(=O)O)cc1 |  |
| 1.26 | COc1ccc(C(C)(O)C(=O)O)cc1Cl (stereo not drawn) |  |
| 3.13 | CC(C)(C)c1ccc(CC(=O)O)cc1 |  |
| 2.43 | CCc1ccc(CC(=O)O)cc1 |  |
| 3.26 | CC(O)(C(=O)O)c1ccc(C2CCCCC2)cc1 (stereo not drawn) |  |

Further lines, the compound ahead of its results:

| SMILES | logD ([1]; pH 3.5) | further results |
| --- | --- | --- |
| CC(CC(=O)c1ccccc1)C(=O)O (stereo not drawn) |  | logD ([1]; pH 3.4): 1.62 |
| O=C(O)CCC(=O)c1ccc(Br)cc1 | 2.28 |  |
| COc1ccc(C(=O)CCC(=O)O)cc1 |  | logD ([1]; pH 3.4): 1.38 |
| CC(C)c1ccc(C(=O)CCCC(=O)O)cc1 | 2.89 |  |
| O=C(O)CCCC(=O)c1ccc(C2CCCCC2)cc1 | 3.95 |  |
| COc1ccc(C(=O)CC(C)CC(=O)O)cc1Cl (stereo not drawn) |  | logD ([1]; pH 3.4): 2.6 |
| COc1ccc(C(=O)CCC(=O)O)cc1Cl | 1.98 |  |
| CC(C)COc1ccc(C(=O)CC(C)C(=O)O)cc1Cl (stereo not drawn) | 3.6 |  |
| O=C(O)CCCC(=O)c1ccc(-c2ccccc2)cc1 |  | logD ([1]; pH 3.4): 3.35 |
| CC(CC(=O)c1ccc(C2CCCCC2)cc1)C(=O)O (stereo not drawn) | 4.08 |  |
| O=C(O)CCC(=O)c1ccc(C2CCCCC2)cc1 | 3.76 |  |
| CC(C)Oc1ccc(C(=O)CC(C)C(=O)O)cc1 (stereo not drawn) | 2.5 |  |
| O=C(O)CCC(=O)c1ccccc1 |  | logD ([1]; pH 3.4): 1.3 |
| CCC(O)(C(=O)O)c1ccc(CC(C)C)cc1 (stereo not drawn) |  | logD ([1]; pH 3.4): 3.37 |
| O=C(O)CCC(=O)c1ccc(C2CCCCC2)c(Cl)c1 | 4.36 |  |
| CC(CC(=O)O)CC(=O)c1ccc(-c2ccccc2)cc1 (stereo not drawn) |  | logD ([1]; pH 3.4): 3.82 |
| CC(CC(=O)O)CC(=O)c1ccc(OC(C)C)c(Cl)c1 (stereo not drawn) | 3.4 |  |
| CC(CC(=O)c1ccc(-c2ccccc2)cc1)C(=O)O (stereo not drawn) |  | logP: 3.13 |
| CCCCCCOc1ccc(C(=O)CCC(=O)O)cc1 | 3.88 |  |
| CC(C)Oc1ccc(C(=O)CCC(=O)O)cc1Cl | 2.78 |  |
| COc1ccc(C(=O)CCCC(=O)O)cc1Cl |  | logD ([1]; pH 3.4): 2.17 |
| CC(CC(=O)O)CC(=O)c1ccc(C2CCCCC2)cc1 (stereo not drawn) | 4.38 |  |
